Assay results as given in ChEMBL document CHEMBL4715903, “Design, Synthesis, and Biological Evaluation of IRAK4-Targeting PROTACs” (ACS Med Chem Lett, 2021).
Activity calls are given as the source filed them. The calls are words filed in the database; no cut-off is given here.

Tests used:
TMD8 = test: Antiproliferative activity against human TMD8 cells harboring MYD88 L265P mutant assessed as inhibition of cell growth incubated for 72 hrs by CCK-8 assay; format: functional, cell-based; conditions: TMD8, 72 h
[1] = target: T1, Protein cereblon/Interleukin-1 receptor-associated kinase 4 (Homo sapiens) (UniProt Q9NWZ3+Q96SW2); test: (§1) Protac activity at CRBN/IRAK4 in human TMD8 cells harboring MYD88 L265P mutant assessed as induction of IRAK4 degradation at 1 uM in presence of IRAK4 inhibitor, Methyl 4-(5-ethoxy-1-methyl-6-(6-(trifluoromethyl)picolinamido)-1H-benzo[d]imidazol-2-yl)-2,2-dimethylbutanoate by Western blot analysis; format: cell-based
[2] = target: T1, Protein cereblon/Interleukin-1 receptor-associated kinase 4 (Homo sapiens); test: Protac activity at CRBN/IRAK4 in human OCILY10 cells assessed as inhibition of IRAK4 phosphorylation by Western blot analysis; format: cell-based; conditions: dose 0.1-10 µM
[3] = target: T1, Protein cereblon/Interleukin-1 receptor-associated kinase 4 (Homo sapiens); test: Protac activity at CRBN/IRAK4 in human TMD8 cells harboring MYD88 L265P mutant assessed as induction of IRAK4 degradation at 1 uM pretreated with proteasome inhibitor, MG132 for 2 hrs followed by compound addition by Western blot analysis; format: cell-based
[4] = target: T1, Protein cereblon/Interleukin-1 receptor-associated kinase 4 (Homo sapiens); test: Protac activity at CRBN/IRAK4 in human TMD8 cells harboring MYD88 L265P mutant assessed as induction of IRAK4 degradation by measuring reduction in IRAK4 protein level at 1 uM by Western blot analysis; format: cell-based; conditions: time 1-24 hrs, TDE = time-dependent effect
[5] = target: T1, Protein cereblon/Interleukin-1 receptor-associated kinase 4 (Homo sapiens); test: Protac activity at CRBN/IRAK4 in human TMD8 cells assessed as inhibition of IRAK4 phosphorylation by Western blot analysis; format: cell-based; conditions: dose 0.1-10 µM
[6] = target: T1, Protein cereblon/Interleukin-1 receptor-associated kinase 4 (Homo sapiens); test: Protac activity at CRBN/IRAK4 in human OCILY10 cells assessed as inhibition of IKKalpha/beta phosphorylation by Western blot analysis; format: cell-based; conditions: dose 0.1-10 µM
[7] = target: T1, Protein cereblon/Interleukin-1 receptor-associated kinase 4 (Homo sapiens); test: Protac activity at CRBN/IRAK4 in human OCILY10 cells harboring MYD88 L265P mutant assessed as induction of IRAK4 degradation at 1 uM pretreated with proteasome inhibitor, MG132 for 2 hrs followed by compound addition by Western blot analysis; format: cell-based
[8] = target: T1, Protein cereblon/Interleukin-1 receptor-associated kinase 4 (Homo sapiens); test: Protac activity at CRBN/IRAK4 in human OCILY10 cells harboring MYD88 L265P mutant assessed as induction of IRAK4 degradation by measuring reduction in IRAK4 protein level at 1 uM by Western blot analysis; format: cell-based; conditions: time 1-24 hrs, TDE = time-dependent effect
[9] = target: T1, Protein cereblon/Interleukin-1 receptor-associated kinase 4 (Homo sapiens); test: Protac activity at CRBN/IRAK4 in human TMD8 cells harboring MYD88 L265P mutant assessed as induction of IRAK4 degradation by measuring reduction in IRAK4 protein level at 1 uM incubated for 24 hrs by Western blot analysis; format: cell-based
[10] = target: T1, Protein cereblon/Interleukin-1 receptor-associated kinase 4 (Homo sapiens); test: Protac activity at CRBN/IRAK4 in human OCILY10 cells harboring MYD88 L265P mutant assessed as induction of IRAK4 degradation by measuring reduction in IRAK4 protein level at 1 uM incubated for 24 hrs by Western blot analysis; format: cell-based
OCI-LY19 = test: Antiproliferative activity against human OCILY19 cells harboring wild type MYD88 assessed as inhibition of cell growth incubated for 72 hrs by CCK-8 assay; format: functional, cell-based
[11] = target: T1, Protein cereblon/Interleukin-1 receptor-associated kinase 4 (Homo sapiens); test: Protac activity at CRBN/IRAK4 in human TMD8 cells harboring MYD88 L265P mutant assessed as induction of IRAK4 degradation by measuring reduction in IRAK4 protein level incubated for 24 hrs by Western blot analysis; format: cell-based; conditions: dose 0.1-10 µM
[12] = target: T1, Protein cereblon/Interleukin-1 receptor-associated kinase 4 (Homo sapiens); test: Protac activity at CRBN/IRAK4 in human OCILY10 cells harboring MYD88 L265P mutant assessed as induction of IRAK4 degradation by measuring reduction in IRAK4 protein level incubated for 24 hrs by Western blot analysis; format: cell-based; conditions: dose 0.1-10 µM
[13] = target: T1, Protein cereblon/Interleukin-1 receptor-associated kinase 4 (Homo sapiens); test: Protac activity at CRBN/IRAK4 in human OCILY10 cells assessed as inhibition of NFkappaB p65 phosphorylation at 2.5 to 20 uM incubated for 48 hrs by Western blot analysis; format: cell-based; conditions: dose 2.5-20 µM
[14] = target: T1, Protein cereblon/Interleukin-1 receptor-associated kinase 4 (Homo sapiens); test: Protac activity at CRBN/IRAK4 in human TMD8 cells assessed as inhibition of IKKalpha/beta phosphorylation by Western blot analysis; format: cell-based; conditions: dose 0.1-10 µM
OCI-Ly10 = test: Antiproliferative activity against human OCILY10 cells harboring MYD88 L265P mutant assessed as inhibition of cell growth incubated for 72 hrs by CCK-8 assay; format: functional, cell-based; conditions: OCI-Ly10, 72 h
[15] = target: T1, Protein cereblon/Interleukin-1 receptor-associated kinase 4 (Homo sapiens); test: Protac activity at CRBN/IRAK4 in human OCILY10 cells harboring MYD88 L265P mutant assessed as induction of IRAK4 degradation at 1 uM in presence of CRBN recruiter, pomalidomide by Western blot analysis; format: cell-based
[16] = target: T1, Protein cereblon/Interleukin-1 receptor-associated kinase 4 (Homo sapiens); test: as §1, with “OCILY10” for “TMD8”; format: cell-based
[17] = target: T1, Protein cereblon/Interleukin-1 receptor-associated kinase 4 (Homo sapiens); test: Protac activity at CRBN/IRAK4 in human TMD8 cells harboring MYD88 L265P mutant assessed as induction of IRAK4 degradation at 1 uM in presence of CRBN recruiter, pomalidomide by Western blot analysis; format: cell-based
[18] = target: T1, Protein cereblon/Interleukin-1 receptor-associated kinase 4 (Homo sapiens); test: Protac activity at CRBN/IRAK4 in human OCILY10 cells assessed as inhibition of NF-kappaB p65 phosphorylation by Western blot analysis; format: cell-based; conditions: dose 0.1-10 µM
[19] = target: T1, Protein cereblon/Interleukin-1 receptor-associated kinase 4 (Homo sapiens); test: Protac activity at CRBN/IRAK4 in human TMD8 cells assessed as inhibition of NF-kappaB p65 phosphorylation by Western blot analysis; format: cell-based; conditions: dose 0.1-10 µM
[20] = target: T2, Interleukin-1 receptor-associated kinase 4 (Homo sapiens, UniProt Q9NWZ3); test: Inhibition of human full length N-terminal His6-tagged recombinant IRAK4 expressed in baculovirus-infected Sf21 cells by Z'-LYTE assay
T2 sequence (Q9NWZ3 whole entry): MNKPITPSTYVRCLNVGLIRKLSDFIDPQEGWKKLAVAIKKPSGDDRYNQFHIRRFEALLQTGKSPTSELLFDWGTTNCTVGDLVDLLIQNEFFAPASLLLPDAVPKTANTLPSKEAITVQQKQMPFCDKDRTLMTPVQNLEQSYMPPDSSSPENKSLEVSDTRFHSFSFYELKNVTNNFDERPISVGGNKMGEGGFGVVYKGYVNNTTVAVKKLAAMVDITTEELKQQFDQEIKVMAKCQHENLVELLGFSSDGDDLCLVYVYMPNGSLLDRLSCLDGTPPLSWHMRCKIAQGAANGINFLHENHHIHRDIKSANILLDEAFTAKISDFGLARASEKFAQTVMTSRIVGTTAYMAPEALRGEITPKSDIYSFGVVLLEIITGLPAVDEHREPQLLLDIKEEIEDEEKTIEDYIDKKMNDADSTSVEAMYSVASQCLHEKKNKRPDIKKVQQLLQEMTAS

T1 sequence (Q96SW2 whole entry, looked up, one chain of several): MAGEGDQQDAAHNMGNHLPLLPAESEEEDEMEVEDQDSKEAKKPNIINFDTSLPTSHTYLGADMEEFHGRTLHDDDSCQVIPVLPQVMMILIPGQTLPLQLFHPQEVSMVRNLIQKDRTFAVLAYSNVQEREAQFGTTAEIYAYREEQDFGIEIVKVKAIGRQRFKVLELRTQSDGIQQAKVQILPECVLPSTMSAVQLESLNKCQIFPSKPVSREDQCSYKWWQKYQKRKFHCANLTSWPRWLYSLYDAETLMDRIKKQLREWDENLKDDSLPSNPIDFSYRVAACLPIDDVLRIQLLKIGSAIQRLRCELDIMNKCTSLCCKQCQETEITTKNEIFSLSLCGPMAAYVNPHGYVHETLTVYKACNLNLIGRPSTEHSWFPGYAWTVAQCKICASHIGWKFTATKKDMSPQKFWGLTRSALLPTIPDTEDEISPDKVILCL

SMILES | IC50 (TMD8) | Activity [9] | Activity [10] | IC50 (OCI-Ly10) | other results
CCOc1cc2nc(CCC(C)(C)C(=O)NCCOCCOCCNc3cccc4c3C(=O)N(C3CCC(=O)NC3=O)C4=O)n(C)c2cc1NC(=O)c1cccc(C(F)(F)F)n1 (centres undefined) | 7.6 µM | Active | Active | 4.6 µM | Activity [1]: inactive; Activity [2]: Dose-dependent effect; Activity [3]: inactive; Activity [4]: Tde; Activity [5]: Dose-dependent effect; Activity [6]: Dose-dependent effect; Activity [7]: inactive; Activity [8]: Tde; Activity (OCI-LY19): inactive; Activity [11]: Dose-dependent effect; Activity [12]: Dose-dependent effect; Activity [13]: Active; Activity [14]: Dose-dependent effect; Activity [15]: inactive; Activity [16]: inactive; Activity [17]: inactive; Activity [18]: Dose-dependent effect; Activity [19]: Dose-dependent effect
CCOc1cc2nc(CCC(C)(C)C(=O)NCCCCCNc3cccc4c3C(=O)N(C3CCC(=O)NC3=O)C4=O)n(C)c2cc1NC(=O)c1cccc(C(F)(F)F)n1 (centres undefined) |  | inactive | inactive |  | 
CCOc1cc2nc(CCC(C)(C)C(=O)NCCNc3cccc4c3C(=O)N(C3CCC(=O)NC3=O)C4=O)n(C)c2cc1NC(=O)c1cccc(C(F)(F)F)n1 (centres undefined) |  | inactive | inactive |  | 
CCOc1cc2nc(CCC(C)(C)C(=O)OC)n(C)c2cc1NC(=O)c1cccc(C(F)(F)F)n1 | > 50 µM |  |  | > 50 µM | IC50 [20]: 0.0707 µM
CCOc1cc2nc(CCC(C)(C)C(=O)NCCCCCCNc3cccc4c3C(=O)N(C3CCC(=O)NC3=O)C4=O)n(C)c2cc1NC(=O)c1cccc(C(F)(F)F)n1 (centres undefined) |  | inactive | inactive |  | 
CCOc1cc2nc(CCC(C)(C)C(=O)NCCOCCOCCNc3cccc4c3C(=O)N(C3CCC(=O)N(C)C3=O)C4=O)n(C)c2cc1NC(=O)c1cccc(C(F)(F)F)n1 (centres undefined) | > 50 µM | inactive | inactive | 11 µM | Activity [13]: inactive
CCOc1cc2nc(CCC(C)(C)C(=O)NCCCCNc3cccc4c3C(=O)N(C3CCC(=O)NC3=O)C4=O)n(C)c2cc1NC(=O)c1cccc(C(F)(F)F)n1 (centres undefined) |  | inactive | inactive |  | 
CCOc1cc2nc(CCC(C)(C)C(=O)NCCCCCCCNc3cccc4c3C(=O)N(C3CCC(=O)NC3=O)C4=O)n(C)c2cc1NC(=O)c1cccc(C(F)(F)F)n1 (centres undefined) |  | Active | inactive |  | 
CCOc1cc2nc(CCC(C)(C)C(=O)NCCCNc3cccc4c3C(=O)N(C3CCC(=O)NC3=O)C4=O)n(C)c2cc1NC(=O)c1cccc(C(F)(F)F)n1 (centres undefined) |  | inactive | inactive |  | 
CCOc1cc2nc(CCC(C)(C)C(=O)NCCOCCNc3cccc4c3C(=O)N(C3CCC(=O)NC3=O)C4=O)n(C)c2cc1NC(=O)c1cccc(C(F)(F)F)n1 (centres undefined) |  | inactive | inactive |  | 
